Measured values as given in the RepoRT retention time repository.
Counter-ions that a name gives are not always drawn.

Test: RP, Restek Raptor Biphenyl, 100 × 2.1 mm, 2.7 µm, 50 °C, 0.4 mL/min, estimated dead time 0.55 min; A: water + 0.1% formic acid, pH 3; B: methanol + 0.1% formic acid, pH 3; gradient (min/%B) 0/5 1.12/5 6.41/99.5 10.01/99.5
Conditions: stereoisomer not certain
Molecule `COc1cc(C(O)C(=O)O)ccc1O` (racemic) [DL-4-Hydroxy-3-methoxymandelic acid] has an LC retention time of 1.73 min. For `O=C(O)C(O)Cc1c[nH]c2ccccc12` (racemic) [DL-Indole-3-lactic acid], the LC retention time was 3.91 min. `COc1cc(CC(O)C(=O)O)ccc1O` (racemic) [DL-Vanillactic acid lithium salt hydrate] gave an LC retention time of 3.04 min. With `O=C(O)CCCC(O)C(=O)O` (racemic) [Disodium (2RS)-2-hydroxyadipate] the LC retention time was 1.03 min. Molecule `CC(C(=O)O)C(O)(CC(=O)O)C(=O)O` (racemic) [Trisodium 2-methylcitrate, racemic mixture of diastereomers] has an LC retention time of 1.03 min. `O=C(O)c1cc(O)ccc1O` [2,5-DIHYDROXYBENZOATE] gave an LC retention time of 2.57 min. `O=C(O)c1ccc(C(=O)O)o1` [2,5-Furandicarboxylic acid] gave an LC retention time of 1.51 min. `O=c1cccc(O)[nH]1` [2,6-DIHYDROXYPYRIDINE] gave an LC retention time of 3.3 min. For `CSCCC(O)C(=O)O` (configuration not stated) [2-HYDROXY-4-(METHYLTHIO)BUTANOATE], the LC retention time was 2.51 min. For `CCCCCCCCCCCCCCC(O)C(=O)O` (configuration not stated) [2-Hydroxyhexadecanoic acid], the LC retention time was 6.3 min. Work on `CC(C)CC(O)C(=O)O` (configuration not stated) [2-Hydroxyisocaproic acid] yielded an LC retention time of 2.76 min. With `CCCCCCCCCCCCC(O)C(=O)O` (configuration not stated) [2-Hydroxytetradecanoic acid] the LC retention time was 6.09 min. With `CC(C)C(O)(CC(=O)O)C(=O)O` (configuration not stated) [2-Isopropylmalic acid] the LC retention time was 2.76 min. Molecule `C=CCC(C)C(=O)O` (configuration not stated) [2-Methyl-4-pentenoic acid] has an LC retention time of 3.16 min. In the case of `O=C(O)CCCC(=O)C(=O)O` [2-Oxoadipic acid], the LC retention time is reported as 0.793 min. In the case of `C=CC(=O)O` [2-PROPENOATE], the LC retention time is reported as 0.959 min. Molecule `CC(C)(CC(=O)O)CC(=O)O` [3,3-Dimethylglutaric acid] has an LC retention time of 3.16 min. For `O=C(O)C(O)c1ccc(O)c(O)c1` (configuration not stated) [3,4 DIHYDROXYMANDELATE], the LC retention time was 0.822 min. Molecule `N[C@@H](Cc1cc(I)c(O)c(I)c1)C(=O)O` [3,5-DIIODO-L-TYROSINE] has an LC retention time of 3.59 min. With `O=C(O)CCc1ccc(O)cc1` [3-(4-Hydroxyphenyl)propionic acid] the LC retention time was 3.65 min. Molecule `O=C(O)CCCCCCC(O)CC(=O)O` (configuration not stated) [3-Hydroxy Sebacic Acid] has an LC retention time of 3.95 min. `CC(O)(CC(=O)O)CC(=O)O` [3-Hydroxy-3-methylglutaric acid] gave an LC retention time of 1.01 min. For `O=C(O)CC(O)CC(=O)O` [3-Hydroxyglutaric acid], the LC retention time was 0.77 min. `O=C(O)CCC(O)CC(=O)O` (configuration not stated) [3-Hydroxyhexanedioic Acid] gave an LC retention time of 0.954 min. `O=C(O)C(O)c1cccc(O)c1` (configuration not stated) [3-Hydroxymandelic acid] showed an LC retention time of 1.52 min. Work on `O=C(O)CCCCC(O)CC(=O)O` (configuration not stated) [3-Hydroxysuberic Acid] yielded an LC retention time of 2.74 min. Molecule `O=C(O)Cc1c[nH]c2ccccc12` [3-Indoleacetic acid] has an LC retention time of 4.19 min. Molecule `O=C(O)C=Cc1c[nH]c2ccccc12` [3-Indoleacrylic acid] has an LC retention time of 4.71 min. Work on `CC(CCC(=O)O)CC(=O)O` (configuration not stated) [3-Methyladipic acid] yielded an LC retention time of 3.25 min. For `CC(C)=CC(=O)NCC(=O)O` [3-Methylcrotonyl Glycine], the LC retention time was 2.95 min. Work on `CC(CC(=O)O)CC(=O)O` [3-Methylglutaric acid] yielded an LC retention time of 2.43 min. In the case of `N[C@@H](Cc1ccc(O)c([N+](=O)[O-])c1)C(=O)O` [3-NITRO-L-TYROSINE], the LC retention time is reported as 1.92 min. Work on `C[C@H](CCC(=O)O)[C@H]1CC[C@H]2[C@@H]3CC[C@@H]4CC(=O)CC[C@]4(C)[C@H]3CC[C@]12C` [3-Oxo-5β-cholanoic Acid] yielded an LC retention time of 6.93 min. Molecule `CCCC(C(=O)O)C(O)C(=O)O` (configuration not stated) [3-Propylmalic acid] has an LC retention time of 2.81 min. `CC(=O)NCCCC(=O)O` [4-ACETAMIDOBUTANOATE] gave an LC retention time of 1.42 min. For `O=C(O)c1ccc(O)cc1` [4-HYDROXYBENZOATE], the LC retention time was 0.822 min. For `O=C(O)Cc1ccc(O)cc1` [4-Hydroxyphenylacetic acid], the LC retention time was 3.02 min.
